Results reported in US20100313310A1, “METHOD FOR IMPROVED UTILIZATION OF THE PRODUCTION POTENTIAL OF TRANSGENIC PLANTS” (priority 2006, published 2010).

Columns and labels:
[1] = test system: armyworm (Spodoptera exigua); assay: Spray treatment of transgenic maize lines against larvae of the armyworm, kill in %, Colby synergy; type: in vivo; settings: spirotetramate at 100 ppm by spray where applied
Source text: (§1) This is based on the following calculation base and assumption (“Colby formula”): […]
(§2) If • X is the kill rate, expressed in % of the untreated and not transgenically modified control, when employing the active compound A at an application rate of m g/ha or at a concentration of m ppm, • Y is the kill rate, expressed in % of the untreated and not transgenically modified control, when using a transgenic plant and • E is the kill rate, expressed in % of the untreated and not transgenically modified control, when employing active compound A and using a transgenically modified plant, the application rate being m and n g/ha or the concentration being m and n ppm, then
(§3) If the actual kill rate (i.e. the activity observed) is higher than the calculated one, the combination of active compound treatment and transgenically modified plant is superadditive in its kill, i.e. a synergistic effect between the active compound treatment and the use of a transgenic plant is present. In this case, the actually observed kill rate must thus be higher than the value calculated using the formula above for the kill rate (E). […]
(§4) After a desired period of time, the kill in % is determined by counting the animals. […]

[2] = test system: cotton aphid (Aphis gossypii); assay: Spray treatment of transgenic cotton (line DP444 BG/RR) populated by cotton aphid, kill in %, Colby synergy; type: in vivo; settings: spirotetramate at 100 ppm by spray where applied
Source text: as §1, §2, §3, §4

[3] = test system: armyworm (Spodoptera frugiperda); assay: Spray treatment of transgenic maize lines against armyworm, kill in %, Colby synergy; type: in vivo; settings: spirotetramate at 100 ppm by spray where applied
Source text: as §1, §2, §3, §4

Compound | melting point | further results
COC1CCC2(CC1)NC(=O)C(c1cc(C)ccc1C)=C2O (stereo not drawn) | > 220 °C | –
COC1CCC2(CC1)NC(=O)C(c1c(C)ccc(Cl)c1C)=C2O (stereo not drawn) | 219 °C | –
spirotetramate | – | Kill in % after 4d (observed) [1]: 10%; Kill in % after 4d (observed) [2]: 35%; Kill in % after 1d (observed) ([3]; after 1 d): 0%; Kill in % after 4d (observed) ([3]; after 4 d): 60%
COC1CCC2(CC1)NC(=O)C(c1c(C)ccc(Br)c1C)=C2O (stereo not drawn) | > 220 °C | –
COC1CCC2(CC1)NC(=O)C(c1c(C)cc(C)c(C)c1C)=C2O (stereo not drawn) | > 220 °C | –
CCOC(=O)OC1=C(c2cc(C)c(Cl)cc2C)C(=O)NC12CCC(OC)CC2 (stereo not drawn) | 162 °C | –
